Reference: article PMC11396667, “Design, Synthesis, and Anticancer and Antibacterial Activities of Quinoline-5-Sulfonamides” (Molecules, 2024)
Values after ≈ are worked out from the molar mass of the structure shown.

Tests used:
[1] = tested on: C-32 (human amelanotic melanoma) cells; test: WST-1 cell viability assay, C-32; assay type: cell-based; conditions: Homo sapiens; WST-1, 72 h exposure, ± SD, n = 6
Method: (§1) The synthesized compounds were tested using three cancer cell lines—human amelanotic melanoma (C-32), human breast adenocarcinoma (MDA-MB-231), and human lung adenocarcinoma (A549)—and, for comparison, normal human dermal fibroblasts (HFF-1). The WST-1 (water-soluble tetrazole salt) assay was used to evaluate the effect of the synthesized compounds on the viability of cultured cells.
(§2) Compounds were evaluated for their antiproliferative activity using three cultured cell lines: C-32 (human amelanotic melanoma, ATCC, Manassas, VA, USA), A549 (human lung adenocarcinoma, ATCC, Manassas, VA, USA), MDA-MB-231 (human breast adenocarcinoma derived from metastatic site: pleural effusion, ATCC, Manassas, VA, USA), together with HFF-1 (normal human dermal fibroblasts, ATCC, Manassas, VA, USA). The cultured cells were kept at 37 °C and 5% CO2.
(§3) Cells were seeded in 96-well plates at 5000/well in 100 μL of medium. After 24 h of incubation, the medium was replaced with a new one with the addition of the test substance. After 72 h, the following tests were performed: with crystal violet (determination of the number of adherent cells in the culture), the WST-1 test (determination of the relative number of living cells and their metabolic activity), and the LDH test (determination of the relative number of dead cells in cultures—cytotoxicity of the tested substance).
(§4) WST-1 test: The WST-1 test (Roche Diagnostics, Mannheim, Germany) allows one to determine the relative number of cells in cultures. Absorbance is directly proportional to the number of cells and their metabolic activity. The absorbance measurement is performed at λ = 450 nm (reference wave 600 nm).

[2] = tested on: MDA-MB-231 (human breast adenocarcinoma) cells; test: WST-1 cell viability assay, MDA-MB-231; assay type: cell-based; conditions: Homo sapiens, MDA-MB-231; WST-1, 72 h exposure, ± SD, n = 6
Method: as §1, §2, §3, §4

[3] = tested on: HFF-1 (normal human dermal fibroblasts); test: WST-1 cell viability assay, normal HFF-1; assay type: cell-based; conditions: HFF-1, WST-1, 72 h exposure, ± SD, n = 6
Method: as §1, §2, §3, §4

[4] = tested on: methicillin-resistant S. aureus SA 3202; test: MBC, agar aliquot subculture method, MRSA1; assay type: cell-based; conditions: Staphylococcus aureus; 99.9% decrease in CFU, 24 h, 37 °C
Text: The activities of the individual derivatives were expressed as minimum inhibitory concentrations (MICs) and minimum bactericidal concentrations (MBCs) and are shown in Table 3 together with the values of the antibiotics used as standards for comparison. […] MBC values of bactericidal compounds are indicated in bold in Table 3.
For the above-mentioned strains/isolates, the agar aliquot subculture method was used as a test for bactericidal agents. After the MIC value determination, the inoculum was transferred to CaMH (Oxoid) for staphylococci, and BHI (Oxoid) for enterococci medium using a multipoint inoculator. The plates were incubated in a thermostat at 37 °C for 24 h. The lowest concentration of test compound at which ≤5 colonies were obtained was then evaluated as MBC, corresponding to a 99.9% decrease in CFU relative to the original inoculum.

S. aureus ATCC 29213 = test: MTT assay of bacterial respiratory activity; assay type: cell-based, Staphylococcus aureus; conditions: for S. aureus Respiration Inhibition: 24 h, at the lowest multiple of MIC giving at least 70% inhibition; for Conc.: lowest multiple of MIC with at least 70% inhibition of respiratory activity / Conc.: the same concentration as multiple of MBC: S. aureus ATCC 29213
Text: The MTT assay can be used to assess cell growth by measuring respiration. Bacterial cell respiratory activity (which is ultimately reflected in their viability) of less than 70% after exposure to the MIC values for each test compound is considered as a positive result for this test. This low level of cellular oxidative metabolism indicates inhibition of cell growth by inhibition of respiration. The lowest multiples of the MIC values by which inhibition of S. aureus ATCC 29213 viability [%] greater than 70% was achieved are shown in Table 4. […] Therefore, the antibacterial activity of the discussed compounds cannot be explained solely on the basis of respiration inhibition, so it is very difficult to draw a conclusion regarding the actual mechanism of action, since 8-HQs are multi-target agents, i.e., they affect several different targets at once (as discussed in the section dedicated to anticancer activity), which subsequently leads to the death of the treated resistant microorganisms.
Compounds were prepared as previously stated and diluted in CaMH broth for S. aureus to achieve the desired final concentrations. S. aureus bacterial suspension in sterile distilled water at 0.5 McFarland was diluted 1:3. Inocula were added to each well by multi-inoculator. Diluted mycobacteria in broth free from inhibiting compounds were used as the growth control. All compounds were prepared in duplicate. Plates were incubated at 37 °C for 24 h for S. aureus. After the incubation period, 10% well volume of MTT (3-(4,5-dimethylthiazol-2-yl)-2,5-diphenyltetrazolium bromide) reagent (Sigma) was mixed into each well and incubated at 37 °C 1 h for S. aureus. Then, 100 µL of 17% sodium dodecyl sulphate in 40% dimethylformamide was added to each well. The plates were read at 570 nm. The absorbance readings from the cells grown in the presence of the tested compounds were compared with uninhibited cell growth to determine the relative percent inhibition. The percent inhibition was determined through MTT assay. The percent viability is calculated through the comparison of a measured value and that of the uninhibited control: % viability = OD570E/OD570P × 100, where OD570E is the reading from the compound-exposed cells, while OD570P is the reading from the uninhibited cells (positive control). Cytotoxic potential is determined by a percent viability of <70% [81, 82].

Structure (SMILES)	IC50 [1]	IC50 [2]	IC50 [3]	MBC [4]	S. aureus Respiration Inhibition (S. aureus ATCC 29213)	Conc.: lowest multiple of MIC with at least 70% inhibition of respiratory activity (S. aureus ATCC 29213)	Conc.: the same concentration as multiple of MBC (S. aureus ATCC 29213)
C#CCOc1ccc(NS(=O)(=O)c2ccc(O)c3ncccc23)cc1 [3d, 8-Hydroxy-N-[4-(prop-2-yn-1-yloxy)phenyl]quinoline-5-sulfonamide]	10.4 ± 0.5 µM	45.3 ± 5.4 µM	> 100 µM	45.2 µM (≈ 16 µg/mL)	73.0%	1× MIC (1× MBC)	1× MIC (1× MBC)
C#CCN(C)S(=O)(=O)c1ccc(O)c2ncccc12 [3c, 8-Hydroxy-N-methyl-N-(prop-2-yn-1-yl)quinoline-5-sulfonamide]	9.8 ± 0.6 µM	2.2 ± 0.1 µM	> 100 µM	29 µM (≈ 8.01 µg/mL)	95.2%	2× MIC (2× MBC)	2× MIC (2× MBC)
C#CCOc1cccc(NS(=O)(=O)c2ccc(O)c3ncccc23)c1 [3e, 8-Hydroxy-N-[3-(prop-2-yn-1-yloxy)phenyl]quinoline-5-sulfonamide]	8.6 ± 0.9 µM	15.2 ± 0.8 µM	> 100 µM	90.4 µM (≈ 32 µg/mL)	73.7%	1× MIC (1× MBC)	1× MIC (1× MBC)
C#CC(C)(C)NS(=O)(=O)c1ccc(O)c2ncccc12 [3b, 8-Hydroxy-N-(1,1-dimethylprop-2-yn-1-yl)quinoline-5-sulfonamide]	22.1 ± 1.5 µM	55.8 ± 1.9 µM	> 100 µM	110 µM (≈ 31.9 µg/mL)	94.4%	2× MIC (2× MBC)	2× MIC (2× MBC)
C#CCNS(=O)(=O)c1ccc(O)c2ncccc12 [3a, 8-Hydroxy-N-(prop-2-yn-1-yl)quinoline-5-sulfonamide]	19.8 ± 1.1 µM	23.3 ± 1.2 µM	> 100 µM	122 µM (≈ 32 µg/mL)	92.5%	1× MIC (1× MBC)	1× MIC (1× MBC)
C#CCOc1ccccc1NS(=O)(=O)c1ccc(O)c2ncccc12 [3f, 8-Hydroxy-N-[2-(prop-2-yn-1-yloxy)phenyl]quinoline-5-sulfonamide]	29.6 ± 2.6 µM	14.7 ± 1.2 µM	28.1 ± 2.2 µM	90.4 µM (≈ 32 µg/mL)	81.6%	1× MIC (1× MBC)	1× MIC (1× MBC)
